{"source": "paper PMC8113290", "about": "“[^11C]MODAG-001—towards a PET tracer targeting α-synuclein aggregates” (European Journal of Nuclear Medicine and Molecular Imaging, 2020)", "key": {"[1]": {"test": "In vivo PET imaging in mice (brain uptake)", "details": "mouse, i.v. injection, one exemplary animal", "procedure": "PET imaging was performed on a dedicated small animal Inveon PET scanner (Siemens Healthcare, Knoxville (TN), USA). Mice and rats were anesthetized with 1.5–1.7% isoflurane evaporated in 100% oxygen at a flow rate of 0.8 L/min, which was maintained during the entire experiment. After a tail vein catheter was placed, the animal was positioned in the center of the field of view (FOV) on an MR-compatible PET bed that was connected to a feedback temperature control unit set to 37 °C. Mice were injected intravenously (i.v.) with 17 ± 2 MBq [^11C]MODAG-001 (n = 3) or 12 ± 1 MBq (d3)-[^11C]MODAG-001 (n = 5) 5 s after the start of the PET acquisition. […]\nWhole body mouse PET scans were coregistered to the whole body MR scan, which was sequentially acquired after the PET scan, and the volumes of interest (VOIs) of the lung, liver, heart, brain, and kidneys were drawn by hand based on the MR anatomical information using PMOD software (version 3.2; PMOD Technologies, Zürich, Switzerland). VOIs of different brain regions were extracted using the mouse or rat brain atlas provided by PMOD [10-12], and tissue time activity curves (TACs) were calculated and are expressed as standardized uptake values (SUVs), which were calculated as follows: SUV(t) = radioactivity concentration (kBq/mL of the organ)/(injected dose [kBq]/body weight [g]). […]"}, "[2]": {"target": "T1, αSYN fibrils inoculated into the right striatum (Homo sapiens, UniProt P37840)", "T1 construct": "made in house; host or cells: E. coli BL21(DE3)pLys", "test": "In vivo PET imaging in αSYN fibril-inoculated rats", "parameters": "species or system rat", "details": "for mean distribution volume ratio (DVR)-1 40-60min (binding potential): 4 days post inoculation", "procedure": "Rats were inoculated with αSYN fibrils (4 μL, 30 μM) into the right striatum (see supplementary material and methods section for a detailed description) and scanned 4 days post-inoculation with 23 ± 1 MBq of (d3)-[^11C]MODAG-001.\nData acquisition, correction, framing and reconstruction, volume of interest (VOI) definition, and determination of binding parameters are described in detail in the supplementary material and methods section.\nRats were allowed to adapt for two weeks in the animal facility before fibril injection. Three adult female rats were anaesthetized with an intraperitoneal (i.p.) injection of a mixture of fentanyl (0.005 mg/kg), midazolam (2 mg/kg), and medetomidine (0.15 mg/kg) at 1 mL/kg. The head of each rat was shaved, and the animal was placed into a stereotaxic frame. A central incision was made to expose the bregma and lambda. A 5 µL syringe needle (Hamilton Company, Reno (NV), USA) was enclosed with a glass capillary (inner diameter, 50 µm, Hilgenberg GmbH, Malsfeld, Germany). αSYN fibrils (4 µL, 30 µM) were injected using a stereotaxic injector (Stoelting, Wood Lane, IL, USA) through a drill hole into the right striatum (ML= -3.2 mm, AP = 0.0 mm, DV = -4.8 mm) according to the stereotaxic atlas of Paxinos and Watson [9][. Based on the volume of the right striatum (0.04 cm^3), the concentration of inoculated fibrils was calculated as 2.8 µM. As a negative control, 4 µL of vehicle (50 mM Tris base, 100 mM sodium chloride, 0.02 % sodium azide, pH 7.0) were injected into the contralateral striatum. A total fibril volume of 4 µL was obtained by the injection of 0.4 µL every 60 seconds. To allow for diffusion of the fibrils into the tissue, the needle was left in this position for five minutes. […]\nWhole body mouse PET scans were coregistered to the whole body MR scan, which was sequentially acquired after the PET scan, and the volumes of interest (VOIs) of the lung, liver, heart, brain, and kidneys were drawn by hand based on the MR anatomical information using PMOD software (version 3.2; PMOD Technologies, Zürich, Switzerland). VOIs of different brain regions were extracted using the mouse or rat brain atlas provided by PMOD [10-12], and tissue time activity curves (TACs) were calculated and are expressed as standardized uptake values (SUVs), which were calculated as follows: SUV(t) = radioactivity concentration (kBq/mL of the organ)/(injected dose [kBq]/body weight [g]). […] Distribution volume ratio 1 (DVR-1) values were calculated from individual TACs from 40 to 60 minutes, using the vehicle-injected striatum as a reference region, with the following formula: activity in fibril inoculated right striatum/activity in vehicle injected left striatum) - 1. […]"}, "[3]": {"test": "Radio-metabolite analysis in mouse plasma and brain by radio-HPLC", "format": "in vivo", "details": "for M3 % / M3 %ID: metabolite 3; for M2* % / M2* %ID: mixture of various metabolites", "procedure": "For metabolite analysis, mice were i.v. injected with 91 ± 24 MBq of [^11C]MODAG-001 (n = 4 per time point) or 120 ± 41 MBq of (d3)-[^11C]MODAG-001 (n = 3 per time point) using a tail vein catheter. Five and 15 min after injection, plasma and brain homogenates were analyzed using radio-HPLC (for detailed information see supplemental material and methods section).\nA 400 µL blood sample was collected by heart puncture five or 15 minutes after tracer injection. The blood was centrifuged at 17,000 x g and 4 °C for two minutes, and the plasma was transferred to a 1.5 mL reaction tube on ice for further analysis. After blood collection, mice were transcardially perfused (10 mL/min) with 20 mL of ice-cold PBS, and the brain of each mouse was removed from the skull. The brain was transferred to a glass tube (2 mL Dounce tissue grinder set, Sigma Aldrich Chemie GmbH) containing 0.5 mL of ice-cold PBS, sequentially homogenized using large and small clearance pestles and transferred to a 1.5 mL reaction tube on ice for further analysis. Plasma or brain homogenate was mixed 1:1 with acetonitrile and briefly centrifuged. After two minutes of incubation on ice, each mixture was centrifuged at room temperature for 1.5 minutes at 12,000 x g (MiniSpin®, Eppendorf AG) to remove precipitated proteins. The supernatant was subjected to reversed-phase HPLC on a Luna Phenyl Hexyl column (5 µm, 100 Å, 300 mm x 4.6 mm, Phenomenex) equipped with a radioactivity detector with 0.1 % trifluoroacetic acid in water/acetonitrile (70:30) at an isocratic flow rate of 1.5 mL/min.\nFor data analysis, the median of ten consecutive data points was calculated to remove noise; data were corrected for radioactive decay to time zero, defined as start of the HPLC of the five minute brain sample. This time zero radioactivity was plotted against time using Origin software (OriginLab Corporation, version 9.1G, Northampton, MA, USA). The area under the curve was calculated in % using the peak analyzer function and scaled up that the peaks add up to 100 %. The area under the curve was transformed into radioactivity values using a standard of [^11C]MODAG-001 with known radioactivity also corrected for decay and expressed as % injected radioactivity dose (%ID) per gram of brain tissue or per plasma in one mL of blood."}, "αSYN and Aβ1–42 fibrils": {"tested_on": "αSYN and Aβ1–42 fibrils", "parameters": "method as in PMID 29989823", "details": "similar rat model, despite good cerebral uptake and high Am ref 30; cited from earlier work"}, "recombinant αSYN fibrils": {"target": "recombinant αSYN fibrils", "details": "cited from earlier work"}, "[4]": {"details": "mouse brain, 5 min after injection"}, "[5]": {"details": "mouse brain, 5 min after injection, parent compound"}, "[6]": {"details": "mouse brain, 15 min after injection, metabolite 1"}, "[7]": {"details": "mouse brain, 15 min after injection"}, "[8]": {"details": "mouse brain, 15 min after injection, parent compound"}, "[9]": {"details": "mouse plasma, 5 min after injection, metabolite 1"}, "[10]": {"details": "mouse plasma, 5 min after injection"}, "[11]": {"details": "mouse plasma, 5 min after injection, parent compound"}, "[12]": {"details": "mouse plasma, 15 min after injection, metabolite 1"}, "[13]": {"details": "mouse plasma, 15 min after injection"}, "[14]": {"details": "mouse plasma, 15 min after injection, parent compound"}}, "note": "Read-outs that look alike come from different tables or passages of the source. Marks after values point to notes of the source that are not given here.", "data": [{"smiles": "[2H]C([2H])([2H])N([11CH3])c1ccc(-c2cc(-c3ccnc(Br)c3)[nH]n2)cc1", "note": "[(d3)-[^11C]MODAG-001]", "values": [{"measurement": "peak standardized uptake value (SUV) in brain", "setting": "[1]", "value": 1.7}, {"measurement": "mean distribution volume ratio (DVR)-1 40-60min (binding potential)", "setting": "[2]; 70% automatic isocontour VOI, contralateral side as reference", "value": "0.44 ± 0.21"}, {"measurement": "peak SUV", "setting": "[2]; left striatum of fibril-inoculated rats", "value": "2.1 ± 0.1"}, {"measurement": "peak SUV", "setting": "[2]; non-injected control rat", "value": 2.1}, {"measurement": "mean distribution volume ratio (DVR)-1 40-60min (binding potential)", "setting": "[2]; whole striatum VOI, contralateral vehicle-injected striatum as reference", "value": "0.14 ± 0.1"}, {"measurement": "M1 %ID", "setting": "[3]; mouse brain, 5 min after injection, metabolite 1", "value": "0.4* %ID per g brain tissue"}, {"measurement": "M1 %", "setting": "[3]; mouse brain, 5 min after injection, metabolite 1, % of radioactivity", "value": 5, "unit": "%"}, {"measurement": "M3 %", "setting": "[3]; [4]", "value": 2, "unit": "%"}, {"measurement": "M3 %ID", "setting": "[3]; [4]", "value": "0.2* %ID per g brain tissue"}, {"measurement": "P %", "setting": "[3]; [5]", "value": 93, "unit": "%"}, {"measurement": "P %ID", "setting": "[3]; [5]", "value": 8.8, "unit": "%ID per g brain tissue"}, {"measurement": "M1 %", "setting": "[3]; [6]", "value": 5, "unit": "%"}, {"measurement": "M1 %ID", "setting": "[3]; [6]", "value": "0.4* %ID per g brain tissue"}, {"measurement": "M3 %", "setting": "[3]; [7]", "value": 8, "unit": "%"}, {"measurement": "M3 %ID", "setting": "[3]; [7]", "value": "0.7* %ID per g brain tissue"}, {"measurement": "P %", "setting": "[3]; [8]", "value": 87, "unit": "%"}, {"measurement": "P %ID", "setting": "[3]; [8]", "value": 7.2, "unit": "%ID per g brain tissue"}, {"measurement": "M1 %", "setting": "[3]; [9]", "value": 21, "unit": "%"}, {"measurement": "M1 %ID", "setting": "[3]; [9]", "value": "0.6^# %ID per plasma in 1 mL blood"}, {"measurement": "M3 %", "setting": "[3]; [10]", "value": 6, "unit": "%"}, {"measurement": "M3 %ID", "setting": "[3]; [10]", "value": "0.1^# %ID per plasma in 1 mL blood"}, {"measurement": "M2* %", "setting": "[3]; [10]", "value": 34, "unit": "%"}, {"measurement": "M2* %ID", "setting": "[3]; [10]", "value": "0.9^# %ID per plasma in 1 mL blood"}, {"measurement": "P %", "setting": "[3]; [11]", "value": 39, "unit": "%"}, {"measurement": "P %ID", "setting": "[3]; [11]", "value": "1.0^# %ID per plasma in 1 mL blood"}, {"measurement": "M1 %", "setting": "[3]; [12]", "value": 30, "unit": "%"}, {"measurement": "M1 %ID", "setting": "[3]; [12]", "value": "0.8^# %ID per plasma in 1 mL blood"}, {"measurement": "M3 %", "setting": "[3]; [13]", "value": 4, "unit": "%"}, {"measurement": "M3 %ID", "setting": "[3]; [13]", "value": "0.1^# %ID per plasma in 1 mL blood"}, {"measurement": "M2* %", "setting": "[3]; [13]", "value": 36, "unit": "%"}, {"measurement": "M2* %ID", "setting": "[3]; [13]", "value": "1.0^# %ID per plasma in 1 mL blood"}, {"measurement": "P %", "setting": "[3]; [14]", "value": 30, "unit": "%"}, {"measurement": "P %ID", "setting": "[3]; [14]", "value": "0.8^# %ID per plasma in 1 mL blood"}]}, {"smiles": "CN([11CH3])c1ccc(-c2cc(-c3ccnc(Br)c3)[nH]n2)cc1", "note": "[[^11C]MODAG-001]", "values": [{"measurement": "peak standardized uptake value (SUV) in brain", "setting": "[1]", "value": 1.4}, {"measurement": "tissue uptake at 5 min", "setting": "[3]; intravenous, mouse brain, 5 min after injection, parent compound, read-out: P %ID", "value": 10.5, "unit": "%ID/g"}, {"measurement": "tissue uptake at 15 min", "setting": "[3]; intravenous, mouse brain, 15 min after injection, parent compound, read-out: P %ID", "value": 5.3, "unit": "%ID/g"}, {"measurement": "P %", "setting": "[3]; [5]", "value": 91, "unit": "%"}, {"measurement": "P %ID", "setting": "[3]; [5]", "value": "10.5* %ID per g brain tissue"}, {"measurement": "P %", "setting": "[3]; [8]", "value": 81, "unit": "%"}, {"measurement": "P %ID", "setting": "[3]; [8]", "value": "5.3* %ID per g brain tissue"}, {"measurement": "P %", "setting": "[3]; [11]", "value": 26, "unit": "%"}, {"measurement": "P %ID", "setting": "[3]; [11]", "value": "0.8^# %ID per plasma in 1 mL blood"}, {"measurement": "P %", "setting": "[3]; [14]", "value": 24, "unit": "%"}, {"measurement": "P %ID", "setting": "[3]; [14]", "value": "0.7^# %ID per plasma in 1 mL blood"}]}, {"smiles": "CN(c1ccc(/C=C/c2nc3ccccc3o2)cc1)S(=O)(=O)c1ccccc1[18F]", "note": "[[^18F]2FBox]", "values": [{"measurement": "binding in vivo", "setting": "αSYN and Aβ1–42 fibrils", "value": "no binding was observed in vivo"}]}, {"smiles": "CN(C)c1ncc(C=Cc2nc3ccc(OCCF)cc3o2)s1", "note": "[[^18F]BF-227]", "values": [{"measurement": "binding in vivo", "setting": "αSYN and Aβ1–42 fibrils", "value": "no binding was observed in vivo"}, {"measurement": "Kd", "setting": "recombinant αSYN fibrils; recombinant αSYN fibrils ref 26", "value": 0.0096, "unit": "µM"}]}, {"smiles": "O=[N+]([O-])c1ccc2c(c1)Sc1cc(OC/C=C/I)ccc1N2", "note": "[[^125I]SIL23]", "values": [{"measurement": "Kd", "setting": "recombinant αSYN fibrils; recombinant αSYN fibrils ref 24", "value": 0.148, "unit": "µM"}]}]}
